{
  "source": "ChEMBL document CHEMBL5528047",
  "about": "“A Potent SOS1 PROTAC Degrader with Synergistic Efficacy in Combination with KRASG12C Inhibitor” (J Med Chem, 2024)",
  "key": {"[1]": {"target": "T1, von Hippel-Lindau disease tumor suppressor/Son of sevenless homolog 1 (Homo sapiens, UniProt Q07889+P40337)", "assay": "Protac activity at VHL/SOS1 in human PANC-1 cells assessed as SOS1 degradation at 1 uM by Western blotting analysis relative to control", "format": "cell-based"}, "[2]": {"target": "T1, von Hippel-Lindau disease tumor suppressor/Son of sevenless homolog 1", "assay": "Protac activity at VHL/SOS1 in human PANC-1 cells assessed as SOS1 degradation incubated for 24 hrs by Western blotting analysis", "format": "cell-based"}, "[3]": {"target": "T1, von Hippel-Lindau disease tumor suppressor/Son of sevenless homolog 1", "assay": "Protac activity at VHL/SOS1 in human MIA PaCa-2 cells assessed as SOS1 degradation incubated for 24 hrs by Western blotting analysis", "format": "cell-based"}, "[4]": {"target": "T1, von Hippel-Lindau disease tumor suppressor/Son of sevenless homolog 1", "assay": "Protac activity at VHL/SOS1 in human MIA PaCa-2 cells assessed as maximum SOS1 degradation at 0.003 to 10 uM incubated for 24 hrs by Western blotting analysis", "format": "cell-based", "conditions": "dose 0.003-10 µM"}, "[5]": {"target": "T1, von Hippel-Lindau disease tumor suppressor/Son of sevenless homolog 1", "assay": "Protac activity at VHL/SOS1 in human NCI-H358 cells assessed as maximum SOS1 degradation at 0.003 to 10 uM incubated for 24 hrs by Western blotting analysis", "format": "cell-based", "conditions": "dose 0.003-10 µM"}, "[6]": {"target": "T1, von Hippel-Lindau disease tumor suppressor/Son of sevenless homolog 1", "assay": "Protac activity at VHL/SOS1 in human K562 cells assessed as SOS1 degradation at 1 uM incubated for 96 hrs by Western blotting analysis", "format": "cell-based"}, "[7]": {"target": "T1, von Hippel-Lindau disease tumor suppressor/Son of sevenless homolog 1", "assay": "Protac activity at VHL/SOS1 in human MIA PaCa-2 cells assessed as SOS1 degradation at 1 uM incubated for 96 hrs by Western blotting analysis", "format": "cell-based"}, "[8]": {"target": "T1, von Hippel-Lindau disease tumor suppressor/Son of sevenless homolog 1", "assay": "Protac activity at VHL/SOS1 in human K562 cells assessed as SOS1 degradation at 1 uM preincubated with MG132 for 2 hrs followed by compound addition and measured after 2 hrs by Western blotting analysis", "format": "cell-based"}, "[9]": {"target": "T1, von Hippel-Lindau disease tumor suppressor/Son of sevenless homolog 1", "assay": "Protac activity at VHL/SOS1 in human K562 cells assessed as SOS1 degradation at 1 uM preincubated with MLN4924 for 2 hrs followed by compound addition and measured after 2 hrs by Western blotting analysis", "format": "cell-based"}, "[10]": {"target": "T2, Son of sevenless homolog 1 (Homo sapiens) (UniProt Q07889)", "T2 sequence (whole entry)": "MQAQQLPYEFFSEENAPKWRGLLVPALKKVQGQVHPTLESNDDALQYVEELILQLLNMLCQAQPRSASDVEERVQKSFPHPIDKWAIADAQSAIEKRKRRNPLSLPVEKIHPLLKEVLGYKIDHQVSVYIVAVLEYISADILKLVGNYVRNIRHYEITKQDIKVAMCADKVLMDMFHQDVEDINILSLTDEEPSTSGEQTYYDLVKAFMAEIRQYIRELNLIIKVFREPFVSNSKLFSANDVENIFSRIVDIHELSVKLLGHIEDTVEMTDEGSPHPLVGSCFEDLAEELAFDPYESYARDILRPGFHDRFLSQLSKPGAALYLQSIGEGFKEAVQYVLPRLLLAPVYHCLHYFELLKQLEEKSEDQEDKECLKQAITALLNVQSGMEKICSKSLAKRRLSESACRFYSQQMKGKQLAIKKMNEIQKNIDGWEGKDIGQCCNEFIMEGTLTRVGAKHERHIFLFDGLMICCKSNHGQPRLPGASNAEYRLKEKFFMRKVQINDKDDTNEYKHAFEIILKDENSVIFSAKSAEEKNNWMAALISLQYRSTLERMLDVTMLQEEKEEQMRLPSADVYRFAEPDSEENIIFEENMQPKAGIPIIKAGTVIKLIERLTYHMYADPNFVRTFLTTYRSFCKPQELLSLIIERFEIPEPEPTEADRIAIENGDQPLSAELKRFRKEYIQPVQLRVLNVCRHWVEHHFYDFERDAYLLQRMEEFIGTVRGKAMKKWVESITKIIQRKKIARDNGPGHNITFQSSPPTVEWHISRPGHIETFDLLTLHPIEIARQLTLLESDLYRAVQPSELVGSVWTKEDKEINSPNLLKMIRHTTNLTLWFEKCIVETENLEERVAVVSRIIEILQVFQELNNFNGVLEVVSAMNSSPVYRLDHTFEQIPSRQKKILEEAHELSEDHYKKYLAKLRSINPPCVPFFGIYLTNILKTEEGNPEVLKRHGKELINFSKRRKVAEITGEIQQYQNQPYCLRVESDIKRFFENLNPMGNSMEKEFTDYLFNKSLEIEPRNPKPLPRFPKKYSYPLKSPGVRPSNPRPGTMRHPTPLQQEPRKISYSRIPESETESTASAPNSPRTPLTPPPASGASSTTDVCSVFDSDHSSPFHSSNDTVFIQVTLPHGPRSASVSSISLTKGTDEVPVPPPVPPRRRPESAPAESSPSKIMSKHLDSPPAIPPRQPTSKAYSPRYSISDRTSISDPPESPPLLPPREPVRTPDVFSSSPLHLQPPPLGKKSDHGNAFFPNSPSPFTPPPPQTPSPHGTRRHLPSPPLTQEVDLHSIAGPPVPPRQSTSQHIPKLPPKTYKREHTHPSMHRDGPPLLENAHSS", "assay": "Induction of SOS1 degradation in human MIA PaCa-2 cells at 1 uM after 24 hrs by MS analysis", "format": "cell-based"}, "[11]": {"target": "T2, Son of sevenless homolog 1 (Homo sapiens)", "assay": "Induction of SOS1 degradation in human NCI-H358 cells at 1 uM measured upto 72 hrs by Western blotting analysis", "format": "cell-based"}, "[12]": {"system": "K562", "assay": "Downregulation of phosphorylated-MEK level in human K562 cells at 0.3 to 3 uM incubated for 24 hrs by Western blotting analysis", "format": "functional, cell-based", "conditions": "dose 0.3-3 µM"}, "[13]": {"system": "K562", "assay": "Effect on total MEK level in human K562 cells at 0.3 to 3 uM incubated for 24 hrs by Western blotting analysis", "format": "functional, cell-based", "conditions": "dose 0.3-3 µM"}, "[14]": {"system": "K562", "assay": "Potency index, ratio of BI3406 IC50 to test compound IC50 for antiproliferative activity against human K562 cells incubated for 72 hrs by CCK8 assay", "format": "functional"}, "[15]": {"system": "NCI-H358", "assay": "Inhibition of colony formation in human NCI-H358 cells at 1 to 9 uM incubated for 10 days by crystal violet staining based assay", "format": "functional, cell-based", "conditions": "dose 1-9 µM, time 10.0 day"}, "[16]": {"assay": "Cmax in ICR mouse at 10 mg/kg, po measured upto 24 hrs by LC-MS/MS analysis", "format": "ADME, organism-based", "conditions": "in vivo"}, "[17]": {"system": "NCI-H358", "assay": "Antiproliferative activity against human NCI-H358 cells incubated for 6 days by CCK8 assay", "format": "functional, cell-based", "conditions": "NCI-H358, 144 h"}, "[18]": {"system": "MIA PaCa-2", "assay": "Antiproliferative activity against human MIA PaCa-2 cells incubated for 6 days by CCK8 assay", "format": "functional, cell-based", "conditions": "MIA PaCa-2, 144 h"}, "[19]": {"system": "MIA PaCa-2", "assay": "(§1) Induction of apoptosis in human MIA PaCa-2 cells assessed as increase in cleaved PARP-1 level incubated for 24 hrs in presence of 4-((S)-4-acryloyl-2-methylpiperazin-1-yl)-6-fluoro-7-(2-fluoro-6-hydroxyphenyl)-1-(2-isopropyl-4-methylpyridin-3-yl)pyrido[2,3-d]pyrimidin-2(1H)-one by Western blotting assay", "format": "functional, cell-based"}, "[20]": {"system": "MIA PaCa-2", "assay": "as §1, with “caspase-3” for “PARP-1”", "format": "functional, cell-based"}},
  "note": "Calls of active or inactive are those of the source. No cut-off for these calls is given here.",
  "data": [
    {"smiles": "COc1cc2nc(C)nc(N[C@H](C)c3cc(N)cc(C(F)(F)F)c3)c2cc1OCCCCC(=O)N[C@H](C(=O)N1C[C@H](O)C[C@H]1C(=O)NCc1ccc(-c2scnc2C)cc1)C(C)(C)C", "values": [
      {"measurement": "Activity", "setting": "[1]", "result": 90.9, "unit": "%"},
      {"measurement": "Activity", "setting": "[2]", "result": "Dose-Dependent Effect"},
      {"measurement": "DC50", "setting": "[2]", "result": 43, "unit": "nM"},
      {"measurement": "Activity", "setting": "[3]", "result": "Dose-Dependent Effect"},
      {"measurement": "DC50", "setting": "[3]", "result": 61, "unit": "nM"},
      {"measurement": "Emax", "setting": "[4]", "result": "> 90", "unit": "%"},
      {"measurement": "Emax", "setting": "[5]", "result": "> 90", "unit": "%"},
      {"measurement": "Activity", "setting": "[6]", "result": "Active"},
      {"measurement": "Activity", "setting": "[7]", "result": "Active"},
      {"measurement": "Activity", "setting": "[8]", "result": "inactive"},
      {"measurement": "Activity", "setting": "[9]", "result": "inactive"},
      {"measurement": "Activity", "setting": "[10]", "result": "Active"},
      {"measurement": "Activity", "setting": "[11]", "result": "Active"},
      {"measurement": "Activity", "setting": "[12]", "result": "Active"},
      {"measurement": "Activity", "setting": "[13]", "result": "inactive"},
      {"measurement": "Ratio IC50", "setting": "[14]", "result": 3},
      {"measurement": "inhibition", "setting": "[15]", "result": "Active"},
      {"measurement": "Cmax", "setting": "[16]", "result": 1650, "unit": "ng/mL"},
      {"measurement": "IC50", "setting": "[17]", "result": 2450, "unit": "nM"},
      {"measurement": "IC50", "setting": "[18]", "result": 3.48, "unit": "µM"},
      {"measurement": "Activity", "setting": "[19]", "result": "Active"},
      {"measurement": "Activity", "setting": "[20]", "result": "Active"}
    ]}
  ]
}
